Series [1] addresses GLP-1R (Homo sapiens, UniProt P43220). As to the kind of experiment: GLP-1R activation: cAMP increase in CHO cells stably expressing GLP-1R. In kind it is cell-based. To be noted: cAMP increase, CHO cells stably expressing GLP-1R, 10 point dose response, 30 minutes incubation; read-out: EC50.
Series [2] is described as follows: Microsomal stability, human liver microsomes (predicted hepatic clearance). The note with it: predicted from in vitro microsomal stability data.

Some results are limits rather than exact numbers.

GLP-1R, sequence (P43220 24-463): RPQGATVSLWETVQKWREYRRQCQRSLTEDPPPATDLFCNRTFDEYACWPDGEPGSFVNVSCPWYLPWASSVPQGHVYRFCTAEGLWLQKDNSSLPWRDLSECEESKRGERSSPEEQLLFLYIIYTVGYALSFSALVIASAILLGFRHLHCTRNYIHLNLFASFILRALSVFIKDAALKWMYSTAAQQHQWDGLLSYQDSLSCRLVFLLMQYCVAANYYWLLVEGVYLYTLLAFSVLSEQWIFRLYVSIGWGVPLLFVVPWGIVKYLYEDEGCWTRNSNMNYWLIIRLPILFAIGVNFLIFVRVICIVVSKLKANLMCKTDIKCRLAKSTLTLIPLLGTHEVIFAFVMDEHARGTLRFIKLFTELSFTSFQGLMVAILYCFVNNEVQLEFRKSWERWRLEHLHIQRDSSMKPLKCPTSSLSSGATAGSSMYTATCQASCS

For the molecule `COCCn1c(Cc2ccc(-c3cccc(OCc4ccc(C#N)cc4F)n3)cc2C#CC2CC(F)(F)C2)nc2ccc(C(=O)O)cc21` [Example 228, 2-(4-(6-((4-cyano-2-fluorobenzyl)oxy)pyridin-2-yl)-2-((3,3-difluorocyclobutyl)ethynyl)benzyl)-1-(2-methoxyethyl)-1H-benzo[d]imidazole-6-carboxylic acid], in series [1], the EC50 came to 4.87 nM. Further, the “Predicted Hepatic Clearance (Pred. Cl.)” value in series [2] is 4.83 mL/min/kg.
The corresponding values for `COCCn1c(Cc2ccc(-c3cccc(OCc4ccc(CC#N)cc4)n3)cc2F)nc2ccc(C(=O)O)cc21` [Example 229, 2-(4-(6-((4-(cyanomethyl)benzyl)oxy)pyridin-2-yl)-2-fluorobenzyl)-1-(2-methoxyethyl)-1H-benzo[d]imidazole-6-carboxylic acid] are 35.4 nM and 8.67 mL/min/kg.
The matching figures for `COCCOCCn1c(Cc2ccc(-c3cccc(OCc4ccc(C#N)cc4F)n3)cc2F)nc2ccc(C(=O)O)cc21` [Example 230, 2-(4-(6-((4-cyano-2-fluorobenzyl)oxy)pyridin-2-yl)-2-fluorobenzyl)-1-(2-(2-methoxyethoxy)ethyl)-1H-benzo[d]imidazole-6-carboxylic acid]: 27.4 nM and 12 mL/min/kg.
Turning to `N#Cc1ccc(COc2cccc(-c3ccc(Cc4nc5ccc(C(=O)O)cc5n4CC45CCC(CC4)O5)c(F)c3)n2)c(F)c1` [Example 231, 1-(7-oxabicyclo[2.2.1]heptan-1-ylmethyl)-2-(4-(6-((4-cyano-2-fluorobenzyl)oxy)pyridin-2-yl)-2-fluorobenzyl)-1H-benzo[d]imidazole-6-carboxylic acid], the half-maximal effective concentration (EC50) in series [1] stood at 35.4 nM. Further, in series [2], the “Predicted Hepatic Clearance (Pred. Cl.)” value was 8.17 mL/min/kg.
Regarding `COCCn1c(Cc2ccc(-c3cccc(OCc4ccc(C#N)cc4F)n3)cc2C#CC2(C)COC2)nc2ccc(C(=O)O)cc21` [Example 232, 2-(4-(6-((4-cyano-2-fluorobenzyl)oxy)pyridin-2-yl)-2-((3-methyloxetan-3-yl)ethynyl)benzyl)-1-(2-methoxyethyl)-1H-benzo[d]imidazole-6-carboxylic acid], the EC50 in series [1] turned out to be 17.8 nM. Moreover, in series [2], the “Predicted Hepatic Clearance (Pred. Cl.)” value was 18.7 mL/min/kg.
As for `COc1cc(Cl)ccc1COc1nccc(-c2ccc(Cc3nc4ccc(C(=O)O)nc4n3CC3(CF)CC3)cc2F)n1` [Example 233, 2-(4-(2-((4-chloro-2-methoxybenzyl)oxy)pyrimidin-4-yl)-3-fluorobenzyl)-3-((1-(fluoromethyl)cyclopropyl)methyl)-3H-imidazo[4,5-b]pyridine-5-carboxylic acid], the half-maximal effective concentration (EC50) in series [1] came to 1.35 nM. In series [2], the “Predicted Hepatic Clearance (Pred. Cl.)” value is 10.3 mL/min/kg.
On to `COCCn1c(Cc2ccc(-c3cccc(OCc4ccc(C#N)cc4OC(F)F)n3)cc2F)nc2ccc(C(=O)O)cc21` [Example 234, 2-(4-(6-((4-cyano-2-(difluoromethoxy)benzyl)oxy)pyridin-2-yl)-2-fluorobenzyl)-1-(2-methoxyethyl)-1H-benzo[d]imidazole-6-carboxylic acid], for which the EC50 in series [1] came to 6.95 nM. For the same molecule, in series [2], the “Predicted Hepatic Clearance (Pred. Cl.)” value was under 1.83 mL/min/kg.
Regarding `COCCn1c(Cc2ccc(-c3cccc(OCc4csc(C#N)c4)n3)cc2F)nc2ccc(C(=O)O)cc21` [Example 235, 2-(4-(6-((5-cyanothiophen-3-yl)methoxy)pyridin-2-yl)-2-fluorobenzyl)-1-(2-methoxyethyl)-1H-benzo[d]imidazole-6-carboxylic acid], the half-maximal effective concentration (EC50) in series [1] was determined as 317 nM. Further, the “Predicted Hepatic Clearance (Pred. Cl.)” value in series [2] was 8.42 mL/min/kg.
Turning to `COCCn1c(Cc2ccc(-c3cccc(OCc4ccc(C#N)cc4OCC(F)(F)F)n3)cc2F)nc2ccc(C(=O)O)cc21` [Example 236, 2-(4-(6-((4-cyano-2-(2,2,2-trifluoroethoxy)benzyl)oxy)pyridin-2-yl)-2-fluorobenzyl)-1-(2-methoxyethyl)-1H-benzo[d]imidazole-6-carboxylic acid], the EC50 in series [1] is 306 nM. Moreover, the “Predicted Hepatic Clearance (Pred. Cl.)” value in series [2] is under 1.83 mL/min/kg.
Take `COCCn1c(Cc2ccc(-c3cccc(OCc4ccc(C#N)cc4F)n3)cc2C#Cc2ccccc2)nc2ccc(C(=O)O)cc21` [Example 237, 2-(4-(6-((4-cyano-2-fluorobenzyl)oxy)pyridin-2-yl)-2-(phenylethynyl)benzyl)-1-(2-methoxyethyl)-1H-benzo[d]imidazole-6-carboxylic acid]: the EC50 in series [1] was 19.2 nM. Moreover, the “Predicted Hepatic Clearance (Pred. Cl.)” value in series [2] was 11.2 mL/min/kg.
The matching figures for `CCOc1cc(C#N)ccc1COc1cccc(-c2ccc(Cc3nc4ccc(C(=O)O)cc4n3CCOC)c(F)c2)n1` [Example 238, 2-(4-(6-((4-cyano-2-ethoxybenzyl)oxy)pyridin-2-yl)-2-fluorobenzyl)-1-(2-methoxyethyl)-1H-benzo[d]imidazole-6-carboxylic acid]: 12 nM and 8.67 mL/min/kg.
In the case of `COCCn1c(Cc2ccc(-c3cccc(OCc4ccc(C#N)cc4F)n3)cc2Br)nc2ccc(C(=O)O)cc21` [Example 239, 2-(2-bromo-4-(6-((4-cyano-2-fluorobenzyl)oxy)pyridin-2-yl)benzyl)-1-(2-methoxyethyl)-1H-benzo[d]imidazole-6-carboxylic], the concentration for a half-maximal effect (EC50) in series [1] came out at 7.49 nM. Besides, the “Predicted Hepatic Clearance (Pred. Cl.)” value in series [2] is under 1.83 mL/min/kg.
On to `COCCn1c(Cc2ccc(-c3cccc(OCc4ccc(C#N)cc4F)n3)cc2C#CC2(CO)CC2)nc2ccc(C(=O)O)cc21` [Example 240, 2-(4-(6-((4-cyano-2-fluorobenzyl)oxy)pyridin-2-yl)-2-((1-(hydroxymethyl)cyclopropyl)ethynyl)benzyl)-1-(2-methoxyethyl)-1H-benzo[d]imidazole-6-carboxylic acid], for which the EC50 in series [1] was determined as 6.82 nM. For the same molecule, in series [2], the “Predicted Hepatic Clearance (Pred. Cl.)” value was 13.7 mL/min/kg.
In the case of `COCCn1c(Cc2ccc(-c3cccc(OCc4cccc5c4OCCC5)n3)cc2F)nc2ccc(C(=O)O)cc21` [Example 241, 2-(4-(6-(chroman-8-ylmethoxy)pyridin-2-yl)-2-fluorobenzyl)-1-(2-methoxyethyl)-1H-benzo[d]imidazole-6-carboxylic acid], in series [1], the EC50 came to 35.1 nM. For the same molecule, the “Predicted Hepatic Clearance (Pred. Cl.)” value in series [2] is 9.83 mL/min/kg.
On to `CCn1c(Cc2ccc(-c3cccc(OCc4ccc(C#N)cc4F)n3)cc2F)nc2ccc(C(=O)O)cc21` [Example 242, 2-(4-(6-((4-cyano-2-fluorobenzyl)oxy)pyridin-2-yl)-2-fluorobenzyl)-1-ethyl-1H-benzo[d]imidazole-6-carboxylic acid], for which the EC50 in series [1] was 18.4 nM. The “Predicted Hepatic Clearance (Pred. Cl.)” value in series [2] was under 1.83 mL/min/kg.
On to `COCCn1c(Cc2ccc(-c3cccc(OCc4ccc(C#N)cc4OC)n3)cc2F)nc2ccc(C(=O)O)cc21` [Example 243, 2-(4-(6-((4-cyano-2-methoxybenzyl)oxy)pyridin-2-yl)-2-fluorobenzyl)-1-(2-methoxyethyl)-1H-benzo[d]imidazole-6-carboxylic acid], for which the concentration for a half-maximal effect (EC50) in series [1] was determined as 0.88 nM. The “Predicted Hepatic Clearance (Pred. Cl.)” value in series [2] is 10.2 mL/min/kg.
Regarding `COCCn1c(Cc2ccc(-c3cccc(OCc4ccc(Cl)cc4OCC(F)F)n3)cc2F)nc2ccc(C(=O)O)cc21` [Example 244, 2-(4-(6-((4-chloro-2-(2,2-difluoroethoxy)benzyl)oxy)pyridin-2-yl)-2-fluorobenzyl)-1-(2-methoxyethyl)-1H-benzo[d]imidazole-6-carboxylic acid], the 50% effective concentration (EC50) in series [1] was determined as 159 nM. Further, in series [2], the “Predicted Hepatic Clearance (Pred. Cl.)” value is 5.67 mL/min/kg.
With `COCCn1c(Cc2ccc(-c3cccc(OCc4ccc(C#N)cc4OCC(F)F)n3)cc2F)nc2ccc(C(=O)O)cc21` [Example 245, 2-(4-(6-((4-cyano-2-(2,2-difluoroethoxy)benzyl)oxy)pyridin-2-yl)-2-fluorobenzyl)-1-(2-methoxyethyl)-1H-benzo[d]imidazole-6-carboxylic acid], the concentration giving a half-maximal response (EC50) in series [1] was 140 nM. For the same molecule, in series [2], the “Predicted Hepatic Clearance (Pred. Cl.)” value is 4.5 mL/min/kg.
With `COCCn1c(Cc2ccc(-c3cccc(OC4CCOc5cc(C#N)ccc54)n3)cc2F)nc2ccc(C(=O)O)cc21` (stereo not shown) [Example 246, 2-(4-(6-((7-cyanochroman-4-yl)oxy)pyridin-2-yl)-2-fluorobenzyl)-1-(2-methoxyethyl)-1H-benzo[d]imidazole-6-carboxylic acid], the concentration giving a half-maximal response (EC50) in series [1] was 1110 nM. Besides, the “Predicted Hepatic Clearance (Pred. Cl.)” value in series [2] was 4.67 mL/min/kg.
Regarding `COCCn1c(Cc2ccc(-c3cccc(OCc4ccc(Cl)cc4OC)n3)cc2F)nc2ccc(C(=O)O)cc21` [Example 247, 2-(4-(6-((4-chloro-2-methoxybenzyl)oxy)pyridin-2-yl)-2-fluorobenzyl)-1-(2-methoxyethyl)-1H-benzo[d]imidazole-6-carboxylic acid], the concentration giving a half-maximal response (EC50) in series [1] stood at 2.2 nM. Moreover, the “Predicted Hepatic Clearance (Pred. Cl.)” value in series [2] is 6.83 mL/min/kg.
Take `COCCn1c(Cc2ccc(-c3cccc(OCc4ccccc4SC(F)(F)F)n3)cc2F)nc2ccc(C(=O)O)cc21` [Example 248, 2-(2-fluoro-4-(6-((2-((trifluoromethyl)thio)benzyl)oxy)pyridin-2-yl)benzyl)-1-(2-methoxyethyl)-1H-benzo[d]imidazole-6-carboxylic acid]: the EC50 in series [1] amounted to 3560 nM. Moreover, the “Predicted Hepatic Clearance (Pred. Cl.)” value in series [2] was 17.8 mL/min/kg.
`COCCn1c(Cc2ccc(-c3cccc(OCc4ccccc4SC)n3)cc2F)nc2ccc(C(=O)O)cc21` [Example 249, 2-(2-fluoro-4-(6-((2-(methylthio)benzyl)oxy)pyridin-2-yl)benzyl)-1-(2-methoxyethyl)-1H-benzo[d]imidazole-6-carboxylic acid]: the half-maximal effective concentration (EC50) in series [1] was 172 nM. The “Predicted Hepatic Clearance (Pred. Cl.)” value in series [2] is 15.5 mL/min/kg.
On to `COCCn1c(Cc2ccc(-c3cccc(OCc4ccc5c(c4)OC(F)(F)O5)n3)cc2F)nc2ccc(C(=O)O)cc21` [Example 250, 2-(4-(6-((2,2-difluorobenzo[d][1,3]dioxol-5-yl)methoxy)pyridin-2-yl)-2-fluorobenzyl)-1-(2-methoxyethyl)-1H-benzo[d]imidazole-6-carboxylic acid], for which, in series [1], the EC50 was 11.7 nM. Besides, the “Predicted Hepatic Clearance (Pred. Cl.)” value in series [2] was under 1.83 mL/min/kg.

The record behind these values is patent publication US11702404B2, “GLP-1R modulating compounds” (priority 2019, dated 2023).
